Laboratory results as given in patent publication US12590091B2, “1H-pyrrolo[3,2-C]pyridine and 1H-pyrrolo[2,3-C]pyridine derivatives as TLR9 inhibitors for the treatment of fibrosis” (BRISTOL-MYERS SQUIBB COMPANY, priority 2020, dated 2026).
pIC50: −log10 of the molar value.

Columns and labels:
human TLR8 = biological target: T1, human TLR8 (Homo sapiens, UniProt Q9NR97); experiment: TLR8 inhibition reporter assay (HEK-Blue cells, SEAP reporter); format: cell-based; conditions: HEK-Blue cells overexpressing human TLR8, stimulated with R848 15.9 μM, 22 hour incubation
T1 construct: host or cells: HEK-Blue cells
T1 sequence (Q9NR97 27-1041): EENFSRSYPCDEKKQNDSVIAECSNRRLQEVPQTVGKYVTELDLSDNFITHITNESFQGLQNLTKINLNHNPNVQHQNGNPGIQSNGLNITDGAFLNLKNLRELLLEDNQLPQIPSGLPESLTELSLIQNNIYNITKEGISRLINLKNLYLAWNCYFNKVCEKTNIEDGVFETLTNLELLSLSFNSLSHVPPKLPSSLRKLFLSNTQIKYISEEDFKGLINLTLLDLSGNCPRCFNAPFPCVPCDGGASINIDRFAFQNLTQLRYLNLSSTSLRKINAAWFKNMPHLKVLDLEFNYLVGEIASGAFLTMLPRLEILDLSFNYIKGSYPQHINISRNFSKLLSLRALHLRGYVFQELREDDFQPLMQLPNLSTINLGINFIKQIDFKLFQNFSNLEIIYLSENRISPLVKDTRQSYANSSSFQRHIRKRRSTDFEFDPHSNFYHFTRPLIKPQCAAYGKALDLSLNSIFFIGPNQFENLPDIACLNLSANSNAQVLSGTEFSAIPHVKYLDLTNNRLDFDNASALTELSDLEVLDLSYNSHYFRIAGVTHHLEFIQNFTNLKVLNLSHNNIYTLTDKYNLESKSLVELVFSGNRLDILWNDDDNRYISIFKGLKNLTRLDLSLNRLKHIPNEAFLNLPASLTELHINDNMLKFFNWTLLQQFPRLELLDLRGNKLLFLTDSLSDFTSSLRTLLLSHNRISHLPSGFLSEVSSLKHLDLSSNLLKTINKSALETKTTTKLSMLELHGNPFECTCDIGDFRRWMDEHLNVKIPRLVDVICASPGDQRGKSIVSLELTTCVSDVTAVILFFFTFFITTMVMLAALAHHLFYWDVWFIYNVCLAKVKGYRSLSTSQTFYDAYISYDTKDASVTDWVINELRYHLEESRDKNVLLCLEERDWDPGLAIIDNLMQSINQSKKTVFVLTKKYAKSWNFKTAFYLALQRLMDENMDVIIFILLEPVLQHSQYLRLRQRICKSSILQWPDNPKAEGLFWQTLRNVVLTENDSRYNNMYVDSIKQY
Summary of the method: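 Dose–response from 0.05 nM to 50 μM was run in HEK-Blue human TLR7, TLR8 and TLR9 reporter cells. After 30 min at room temperature with compound, ligand was added (TLR7 gardiquimod 7.5 μM; TLR8 R848 15.9 μM; TLR9 ODN2006 5 nM) and SEAP measured next day, at 22 h.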

human TLR9 = biological target: T2, human TLR9 (Homo sapiens, UniProt Q9NR96); experiment: TLR9 inhibition reporter assay (HEK-Blue cells, SEAP reporter); format: cell-based; conditions: HEK-Blue cells overexpressing human TLR9, stimulated with ODN2006 5 nM, 22 hour incubation
T2 construct: host or cells: HEK-Blue cells
T2 sequence (Q9NR96 26-1032): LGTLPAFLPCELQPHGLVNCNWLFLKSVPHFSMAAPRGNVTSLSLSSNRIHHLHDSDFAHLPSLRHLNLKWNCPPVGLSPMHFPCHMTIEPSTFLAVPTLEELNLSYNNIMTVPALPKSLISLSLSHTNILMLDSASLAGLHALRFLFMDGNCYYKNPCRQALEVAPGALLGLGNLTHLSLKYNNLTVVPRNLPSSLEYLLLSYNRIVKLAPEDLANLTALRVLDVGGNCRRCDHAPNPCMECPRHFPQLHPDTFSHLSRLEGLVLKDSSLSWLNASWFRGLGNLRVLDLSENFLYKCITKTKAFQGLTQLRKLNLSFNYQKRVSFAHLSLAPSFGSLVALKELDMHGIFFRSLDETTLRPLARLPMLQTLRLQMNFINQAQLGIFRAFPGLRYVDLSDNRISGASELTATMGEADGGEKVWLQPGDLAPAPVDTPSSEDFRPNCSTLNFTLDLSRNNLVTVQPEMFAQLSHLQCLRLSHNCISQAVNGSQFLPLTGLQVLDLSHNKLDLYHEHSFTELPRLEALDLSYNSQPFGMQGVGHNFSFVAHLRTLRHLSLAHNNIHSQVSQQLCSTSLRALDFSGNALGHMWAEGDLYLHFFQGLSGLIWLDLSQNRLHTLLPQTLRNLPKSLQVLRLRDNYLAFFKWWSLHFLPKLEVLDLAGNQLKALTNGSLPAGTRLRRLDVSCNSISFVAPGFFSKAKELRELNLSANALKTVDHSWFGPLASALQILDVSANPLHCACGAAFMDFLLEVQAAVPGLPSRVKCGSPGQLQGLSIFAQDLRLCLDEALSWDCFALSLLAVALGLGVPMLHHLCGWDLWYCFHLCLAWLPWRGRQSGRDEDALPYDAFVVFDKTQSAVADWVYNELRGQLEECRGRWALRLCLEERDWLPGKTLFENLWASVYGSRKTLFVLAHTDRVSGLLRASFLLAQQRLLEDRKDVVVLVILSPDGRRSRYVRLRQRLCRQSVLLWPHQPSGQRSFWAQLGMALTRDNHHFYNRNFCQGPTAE
Summary of the method: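 Compound dose-response (0.05 nM–50 μM final) on agonist-stimulated human TLR9 HEK-Blue cells, 25,000/well, incubated 22 h at 37 °C, 5% CO2. Readout was secreted alkaline phosphatase under an IFN-β minimal promoter with NF-κB/AP-1 sites; inhibition expressed relative to DMSO and reference-inhibitor controls.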

pIC50 (human TLR8) | pIC50 (human TLR9) | Compound
4.71 | 7.24 | COCCN1C2CCC1CN(c1ccc(-c3cc4c(cc(-c5ccc(S(C)(=O)=O)cc5)n4C)c(C)n3)cc1)C2 [Example 74, 6-(4-(8-(2-methoxyethyl)-3,8-diazabicyclo[3.2.1]octan-3-yl)phenyl)-1,4-dimethyl-2-(4-(methylsulfonyl)phenyl)-1H-pyrrolo[3,2-c]pyridine]
5.02 | 7.12 | COCCN1C2CCC1CN(c1ccc(-c3cc4c(cc(-c5ccc(S(C)(=O)=O)cc5)n4C)c(C)n3)cc1F)C2 [Example 75, 6-(3-fluoro-4-(8-(2-methoxyethyl)-3,8-diazabicyclo[3.2.1]octan-3-yl)phenyl)-1,4-dimethyl-2-(4-(methylsulfonyl)phenyl)-1H-pyrrolo[3,2-c]pyridine]
4.74 | 7.28 | Cc1nc(-c2ccc(N3CC4CCC(C3)N4CCCO)cc2)cc2c1cc(-c1ccc(S(C)(=O)=O)cc1)n2C [Example 76, 3-(3-(4-(1,4-dimethyl-2-(4-(methylsulfonyl)phenyl)-1H-pyrrolo[3,2-c]pyridin-6-yl)phenyl)-3,8-diazabicyclo[3.2.1]octan-8-yl)propan-1-ol]
4.72 | 6.90 | Cc1nc(-c2ccc(N3CC4CCC(C3)N4CCCO)c(F)c2)cc2c1cc(-c1ccc(S(C)(=O)=O)cc1)n2C [Example 77, 3-(3-(4-(1,4-dimethyl-2-(4-(methylsulfonyl)phenyl)-1H-pyrrolo[3,2-c]pyridin-6-yl)-2-fluorophenyl)-3,8-diazabicyclo[3.2.1]octan-8-yl)propan-1-ol]
5.03 | 6.83 | COCCN1C2CCC1CN(c1cc(F)c(-c3cc4c(cc(-c5ccc(S(C)(=O)=O)cc5)n4C)c(C)n3)cc1F)C2 [Example 78, 6-(2,5-difluoro-4-(8-(2-methoxyethyl)-3,8-diazabicyclo[3.2.1]octan-3-yl)phenyl)-1,4-dimethyl-2-(4-(methylsulfonyl)phenyl)-1H-pyrrolo[3,2-c]pyridine]
5.02 | 7.46 | Cc1nc(-c2cc(F)c(N3CC4CCC(C3)N4CCCO)cc2F)cc2c1cc(-c1ccc(S(C)(=O)=O)cc1)n2C [Example 79, 3-(3-(4-(1,4-dimethyl-2-(4-(methylsulfonyl)phenyl)-1H-pyrrolo[3,2-c]pyridin-6-yl)-2,5-difluorophenyl)-3,8-diazabicyclo[3.2.1]octan-8-yl) propan-1-ol]
< 4.30 | 6.48 | Cc1nc(-c2ccc(N3CCN(CC(C)C)CC3)c(F)c2F)cc2c1cc(-c1ccc(S(C)(=O)=O)cc1)n2C [Example 82, 6-(2,3-difluoro-4-(4-isobutylpiperazin-1-yl)phenyl)-1,4-dimethyl-2-(4-(methylsulfonyl)phenyl)-1H-pyrrolo[3,2-c]pyridine]
5.40 | 7.14 | Cc1nc(-c2ccc(C3(O)CCN(C4CC4)CC3)cc2)cc2c1cc(-c1ccc(S(C)(=O)=O)cc1)n2C [Example 87, 1-cyclopropyl-4-(4-(1,4-dimethyl-2-(4-(methylsulfonyl)phenyl)-1H-pyrrolo[3,2-c]pyridin-6-yl)phenyl)piperidin-4-ol]
4.98 | 6.94 | Cc1nc(-c2ccc(C3(O)CCN(C(C)C)CC3)cc2)cc2c1cc(-c1ccc(S(C)(=O)=O)cc1)n2C [Example 88, 4-(4-(1,4-dimethyl-2-(4-(methylsulfonyl)phenyl)-1H-pyrrolo[3,2-c]pyridin-6-yl)phenyl)-1-isopropylpiperidin-4-ol]
5.22 | 6.60 | Cc1nc(-c2ccc(N3CCN4CCCC4C3)c(F)c2F)cc2c1cc(-c1ccc(S(C)(=O)=O)cc1)n2C (stereo not shown) [Example 99, 6-(2,3-difluoro-4-(hexahydropyrrolo[1,2-a]pyrazin-2(1H)-yl)phenyl)-1,4-dimethyl-2-(4-(methylsulfonyl)phenyl)-1H-pyrrolo[3,2-c]pyridine]
5.89 | 6.74 | Cc1nc(-c2ccc(C3(O)CC4CCC(C3)N4C(C)C)c(F)c2)cc2c1cc(-c1ccc(S(C)(=O)=O)cc1)n2C [Example 100, (1R,3r,5S)-3-(4-(1,4-dimethyl-2-(4-(methylsulfonyl)phenyl)-1H-pyrrolo[3,2-c]pyridin-6-yl)-2-fluorophenyl)-8-isopropyl-8-azabicyclo[3.2.1]octan-3-ol]
5.29 | 6.94 | CCN1C2CCC1CC(O)(c1ccc(-c3cc4c(cc(-c5ccc(S(C)(=O)=O)cc5)n4C)c(C)n3)cc1F)C2 [Example 101, (1R,3r,5S)-3-(4-(1,4-dimethyl-2-(4-(methylsulfonyl)phenyl)-1H-pyrrolo[3,2-c]pyridin-6-yl)-2-fluorophenyl)-8-ethyl-8-azabicyclo[3.2.1]octan-3-ol]
6.00 | 6.90 | Cc1nc(-c2ccc(C3(O)CC4CCC(C3)N4C)c(F)c2)cc2c1cc(-c1ccc(S(C)(=O)=O)cc1)n2C [Example 102, (1R,3r,5S)-3-(4-(1,4-dimethyl-2-(4-(methylsulfonyl)phenyl)-1H-pyrrolo[3,2-c]pyridin-6-yl)-2-fluorophenyl)-8-methyl-8-azabicyclo[3.2.1]octan-3-ol]
5.68 | 6.79 | Cc1nc(-c2ccc(C3(O)CCN(C(C)(C)C)CC3)c(F)c2)cc2c1cc(-c1ccc(S(C)(=O)=O)cc1)n2C [Example 104, 1-(tert-butyl)-4-(4-(1,4-dimethyl-2-(4-(methylsulfonyl)phenyl)-1H-pyrrolo[3,2-c]pyridin-6-yl)-2-fluorophenyl)piperidin-4-ol]
6.70 | 7.28 | Cc1nc(-c2ccc([C@@]3(O)CCN(C(C)C)C(C)(C)C3)c(F)c2)cc2c1cc(-c1ccc(S(C)(=O)=O)cc1)n2C [Example 105, (R)-4-(4-(1,4-dimethyl-2-(4-(methylsulfonyl)phenyl)-1H-pyrrolo[3,2-c]pyridin-6-yl)-2-fluorophenyl)-1-isopropyl-2,2-dimethylpiperidin-4-ol]
6.15 | 7.33 | Cc1nc(-c2ccc([C@]3(O)CCN(C(C)C)C(C)(C)C3)c(F)c2)cc2c1cc(-c1ccc(S(C)(=O)=O)cc1)n2C [Example 106, (S)-4-(4-(1,4-dimethyl-2-(4-(methylsulfonyl)phenyl)-1H-pyrrolo[3,2-c]pyridin-6-yl)-2-fluorophenyl)-1-isopropyl-2,2-dimethylpiperidin-4-ol]
5.57 | 7.74 | Cc1nc(-c2ccc(C3(O)CCN(C(C)C)CC3)c(F)c2)cc2c1cc(-c1ccc(S(C)(=O)=O)cc1)n2C [Example 107, 4-(4-(1,4-dimethyl-2-(4-(methylsulfonyl)phenyl)-1H-pyrrolo[3,2-c]pyridin-6-yl)-2-fluorophenyl)-1-isopropylpiperidin-4-ol]
